Results reported in patent US6518300B2, “Treatment of lipid metabolic disorders using 5-(1,2-dithiolan-3-yl) valeric acid (α-lipoic acid) or its physiologically compatible salts” (BiRD Berolina innovative Research and Development GmbH, priority 1998, dated 2003).

Columns and labels:
[1] = open observational study of blood lipid values under α-lipoic acid therapy; total population and individual-parameter analysis; format: in vivo, patients
Procedure: A somewhat smaller group was treated with α-lipoic acid, but not with captopril (n=280). The treatment time extended over approximately 3 months. α-Lipoic acid was predominantly administered orally or parenterally in a dose of 600 mg per day. Captopril was ingested orally in daily doses of 12.5 to 50 mg. At the beginning of therapy and at the end of observation after three months, the blood lipid values were optionally recorded. […] Because of the different basic treatment, the patients with combined therapy of α-lipoic acid and captopril and those with a single therapy with α-lipoic acid were placed in subgroups for this purpose: the 160 remaining patients (those with single therapy with captopril, n=154; those without treatment data n=6) were not included in the further analysis, since in this remaining group, only a small, incomparable number of patients had initial values corresponding to the range named under point 2 (triglycerides n=0, total cholesterol n=63, HDL cholesterol n=0, LDL cholesterol n=32). In a first analysis, the parameters were represented independently of one another, i.e., all patients, who had the initial values given below for the parameter, were included for each parameter: triglycerides >6 mmoles/l; total cholesterol >6 mmoles/l HDL cholesterol 0.7-0.8 mmole/l; LDL cholesterol >2.5 mmoles/l. The limits of the range were selected based on the studies reported in the literature (H. Thuro, Effective decrease in cholesterol and triglycerides with atorvastatin, Supplement in Der Internist 1996; 37 (8), 1-8).

[2] = doses of approximately 600 mg/day; treatment of polyneuropathy; cited from earlier work
[3] = same observational study; patients assigned to three groups by disease pattern (DGFF guidelines); format: in vivo
Procedure: A somewhat smaller group was treated with α-lipoic acid, but not with captopril (n=280). The treatment time extended over approximately 3 months. α-Lipoic acid was predominantly administered orally or parenterally in a dose of 600 mg per day. Captopril was ingested orally in daily doses of 12.5 to 50 mg.
In another consideration, the patients were assigned to three groups on the basis of their disease pattern, independent of the form of therapy, according to the “Guidelines of the German Association for Combatting Disorders of Lipid Metabolism and Their Sequelae DGFF (Lipid-Liga) e.V.” (Supplement to the German Ärzteblatte 1996; 4, 1-8):
1) isolated LDL-hypercholesterolemia (LDL>4.14, triglycerides≦2.2 mmoles/l);
2) combined LDL-hypercholesterolemia (LDL>4.14, triglycerides>2.2 mmoles/l);
3) isolated hypertriglyceridemia (LDL≦4.14, triglycerides>2.2 mmoles/l).
Standard values from the literature were set as limiting values (Wilson et al., Harrison's Principles of Internal Medicine, 12Edition, McGraw-Hill, 1991).
Sixty-two patients were placed in the first group, 112 patients in the second group, and 83 patients in the third group.

[4] = total population, start vs end of observation after three months, predominantly 600 mg per day
[5] = group 2 combined LDL-hypercholesterolemia
[6] = group 2 combined LDL-hypercholesterolemia, 91 paired values, p<0.0001

## O=C(O)CCCCC1CCSS1 (stereo not drawn) [α-lipoic acid, 5-(1,2-dithiolan-3-yl) valeric acid]
[1]; patients with initial HDL 0.7-0.8 mmole/l, all patients, prior mean 0.76 (n=33), end n=13, increase not significant
  HDL cholesterol, mean end value: 0.97 mmol/L
[1]; patients with initial HDL 0.7-0.8 mmole/l, not significant
  percent increase of HDL cholesterol, on average: over 20%
[1]; patients with initial LDL >2.5 mmoles/l, all patients, prior mean 4.41 (n=336), end n=208, p<0.001
  LDL cholesterol, mean end value: 4.03 mmol/L
[1]; patients with initial LDL >2.5 mmoles/l, in all groups
  percent decrease of LDL cholesterol, on average: approximately 10%
[1]; patients with initial total cholesterol >6 mmoles/l, in all groups
  mean percent decrease of total cholesterol: approximately 10%
[1]; patients with initial total cholesterol >6 mmoles/l, prior mean 7.32 (n=853), 570 paired values, p<0.0001
  total cholesterol, mean end value: 6.57 mmol/L
[1]; patients with initial triglycerides >6 mmoles/l, all patients, prior mean 8.96 (n=33), end n=26, p<0.05, approx. 3 months
  triglycerides, mean end value: 7.16 mmol/L
[1]; patients with initial triglycerides >6 mmoles/l, in all groups (total, combined with captopril, single therapy)
  mean percentual decrease of triglycerides: greater than 20%
[1]; single therapy of α-lipoic acid vs combined therapy with captopril
  observed changes of all lipid parameters, single therapy compared with combined therapy with captopril: more strongly pronounced
[1]; [4]
  change of HDL cholesterol: slight increase
  change of LDL cholesterol: statistically striking decrease
  change of total cholesterol: statistically striking decrease
[1]; total population, start vs end of observation after three months, predominantly 600 mg per day oral or parenteral
  change of triglycerides: statistically striking decrease
[2]
  compatibility of oral and parenteral therapy: very good
[3]; group 1, 34 paired values, not significant
  HDL cholesterol, percent increase: approximately 10%
[3]; group 1 isolated LDL-hypercholesterolemia
  total cholesterol, percent decrease: 8%
[3]; group 1 isolated LDL-hypercholesterolemia, initial 7.01 (n=62), end n=40
  total cholesterol, end value: 6.49 mmol/L
[3]; group 1 isolated LDL-hypercholesterolemia, p<0.0001
  LDL cholesterol, mean percent decrease: 16%
[3]; group 1 isolated LDL-hypercholesterolemia, prior 1.29 (n=61), end n=34
  HDL cholesterol, end value: 1.34 mmol/L
[3]; group 1 isolated LDL-hypercholesterolemia, prior 1.69, n=38, increase not significant
  triglycerides, average end value: 1.70 mmol/L
[3]; group 1 isolated LDL-hypercholesterolemia, prior 5.02, n=33
  LDL cholesterol, end value: 4.33 mmol/L
[3]; [5]
  HDL cholesterol, percent increase: 4.5%
  total cholesterol, percent decrease: ~10%
[3]; [6]
  triglycerides, absolute difference (decrease): 0.83 mmol/L
  triglycerides, percent decrease: 20%
[3]; group 2 combined LDL-hypercholesterolemia, p<0.0001
  LDL cholesterol, mean percent decrease: 14%
[3]; group 2 combined LDL-hypercholesterolemia, prior 1.15 (n=108), end n=77
  HDL cholesterol, end value: 1.15 mmol/L
[3]; group 2 combined LDL-hypercholesterolemia, prior 5.42, n=74
  LDL cholesterol, end value: 4.75 mmol/L
[3]; group 2 combined LDL-hypercholesterolemia, prior 7.71 (n=112), end n=94
  total cholesterol, end value: 6.86 mmol/L
[3]; group 2 combined LDL-hypercholesterolemia, prior value 3.75, 91 paired values
  triglycerides, end value: 2.74 mmol/L
[3]; group 3, 59 paired values, p<0.01
  HDL cholesterol, percent increase: approximately 15%
[3]; group 3 isolated hypertriglyceridemia
  total cholesterol, percent decrease: about 5%
[3]; group 3 isolated hypertriglyceridemia, initial 3.29, n=59, change not significant
  LDL cholesterol, end value: 3.23 mmol/L
[3]; group 3 isolated hypertriglyceridemia, initial 6.31 (n=83), end n=67
  total cholesterol, end value: 5.88 mmol/L
[3]; group 3 isolated hypertriglyceridemia, n=67, p<0.0001
  triglycerides, percent reduction: about 16%
[3]; group 3 isolated hypertriglyceridemia, prior 1.19 (n=83), end n=59
  HDL cholesterol, end value: 1.31 mmol/L
[3]; group 3 isolated hypertriglyceridemia, prior 3.33 (n=83), n=67, p<0.0001
  triglycerides, end value: 2.69 mmol/L
[3]; isolated LDL hypercholesterolemia (group 1)
  decrease in ratio of LDL to HDL cholesterol: 16.97%
[3]; isolated LDL hypercholesterolemia (group 1), prior value 3.89
  ratio of LDL to HDL cholesterol, end value: 3.23
[3]; mixed hyperlipidemia (group 2)
  decrease in ratio of LDL to HDL cholesterol: 12.31%
[3]; mixed hyperlipidemia (group 2), prior value 4.71
  ratio of LDL to HDL cholesterol, end value: 4.13
[3]; patients without LDL cholesterinolemia (group 3), initial value in normal range
  improvement in ratio of LDL to HDL cholesterol: 10.51%
